Assay results published in ChEMBL document CHEMBL4699511, “Cedrol, a Sesquiterpene Alcohol, Enhances the Anticancer Efficacy of Temozolomide in Attenuating Drug Resistance via Regulation of the DNA Damage Response and MGMT Expression” (J Nat Prod, 2020).
Activity calls are given as the source filed them. No cut-off for these calls is given here.

Experiments:
[1] = tested on: RG2; experiment: Induction of cell cycle arrest in rat RG2 cells assessed as accumulation at S phase at 206 uM after 6 hrs by propidium iodide staining based flow cytometric analysis (reference value: 20.15 +/- 2.44%); format: functional
[2] = tested on: RG2; experiment: Induction of DNA damage in rat RG2 cells assessed as ATR phosphorylation at ser428 residues at 206 uM after 48 hrs by Western blot analysis (reference value: 1); format: functional
[3] = Effect on p38 expression in human DBTRG-05MG cells at 206 uM after 48 hrs by Western blot analysis (reference value: 1); format: functional
[4] = tested on: RG2; experiment: Induction of apoptosis in rat RG2 cells assessed as increase in apoptotic body formation at 206 uM after 48 hrs by TUNEL assay; format: functional, cell-based
[5] = tested on: DBTRG-05MG; experiment: Antitumour activity against human DBTRG-05MG cells xenografted in BALB/c nude mouse assessed as increase in survival time at 5 mg/kg, ip for 5 days and measured every 2 days; format: functional, organism-based; details: time 5.0 day
[6] = tested on: DBTRG-05MG; experiment: Induction of cell cycle arrest in human DBTRG-05MG cells assessed as accumulation at G0/G1 phase at 206 uM after 48 hrs by propidium iodide staining based flow cytometric analysis (reference value: 47.16 +/- 1.55%); format: functional
[7] = tested on: RG2; experiment: Induction of apoptosis in rat RG2 cells assessed as phosphorylated caspace-9 expression at 206 uM after 48 hrs by Western blot analysis (reference value: 1); format: functional
[8] = tested on: RG2; experiment: Induction of apoptosis in rat RG2 cells assessed as increase in DNA fragmentation at 112.4 uM after 48 hrs by TUNEL assay; format: functional, cell-based
[9] = tested on: DBTRG-05MG; experiment: Induction of cell cycle arrest in human DBTRG-05MG cells assessed as p53 expression at 112.4 uM after 48 hrs in presence of TMZ by Western blot analysis (reference value: 1); format: functional
[10] = tested on: RG2; experiment: Induction of cell cycle arrest in rat RG2 cells assessed as CDK2 expression at 112.4uM after 48 hrs in presence of TMZ by Western blot analysis (reference value: 1); format: functional
[11] = tested on: RG2; experiment: Induction of apoptosis in rat RG2 cells assessed as cleaved PARP expression at 112.4 uM after 48 hrs in presence of TMZ by Western blot analysis (reference value: 1); format: functional
[12] = tested on: RG2; experiment: Synergistic cytotoxicity against rat RG2 cells assessed as synergistic effect index at 112.4 uM after 48 hrs in presence of 309 uM TMZ by MTT assay; format: functional
[13] = tested on: DBTRG-05MG; experiment: Synergistic cytotoxicity against human DBTRG-05MG cells assessed as synergistic effect index at 112.4 uM after 48 hrs in presence of 515.1 uM TMZ by MTT assay; format: functional
[14] = tested on: DBTRG-05MG; experiment: Induction of cell cycle arrest in human DBTRG-05MG cells assessed as accumulation at S phase at 112.4 uM after 48 hrs by propidium iodide staining based flow cytometric analysis (reference value: 22.76 +/- 1.56%); format: functional
[15] = tested on: DBTRG-05MG; experiment: Synergistic cytotoxicity against human DBTRG-05MG cells assessed as synergistic effect index at 89.9 uM after 48 hrs in presence of 412.1 uM TMZ by MTT assay; format: functional
[16] = tested on: DBTRG-05MG; experiment: Potentiation of TMZ-induced antitumor activity against human DBTRG-05MG cells xenografted in BALB/c nude mouse assessed as increase in survival time at 75 mg/kg, sc co-treated with TMZ for 18 days; format: functional, organism-based; details: time 18.0 day
[17] = tested on: DBTRG-05MG; experiment: Induction of apoptosis in human DBTRG-05MG cells assessed as increase in DNA fragmentation at 112.4 uM after 48 hrs in presence of TMZ by TUNEL assay; format: functional, cell-based
[18] = tested on: DBTRG-05MG; experiment: Induction of cell cycle arrest in human DBTRG-05MG cells assessed as accumulation at G2/M phase at 112.4 uM after 24 hrs in presence of TMZ by propidium iodide staining based flow cytometric analysis (reference value: 30.08 +/- 0.1%); format: functional
[19] = Synergistic cytotoxicity against rat CTX TNA2 cells assessed as synergistic effect index at 134.9 uM after 48 hrs in presence of 515.1 uM TMZ by MTT assay; format: cell-based; details: ctx tna2, 48 h
[20] = tested on: RG2; experiment: Induction of cell cycle arrest in rat RG2 cells assessed as accumulation at S phase at 112.4 uM after 6 hrs by propidium iodide staining based flow cytometric analysis (reference value: 20.15 +/- 2.44%); format: functional
[21] = tested on: RG2; experiment: Synergistic cytotoxicity against rat RG2 cells assessed as synergistic effect index at 112.4 uM after 48 hrs in presence of 412.1 uM TMZ by MTT assay; format: functional
[22] = tested on: DBTRG-05MG; experiment: Inhibition of ERK phosphorylation at Tyr204 residues in human DBTRG-05MG cells at 112.4uM after 48 hrs by Western blot analysis (reference value: 1); format: cell-based
[23] = tested on: RG2; experiment: Synergistic cytotoxicity against rat RG2 cells assessed as synergistic effect index at 134.9 uM after 48 hrs in presence of 309 uM TMZ by MTT assay; format: functional
[24] = Effect on AKT expression in rat RG2 cells at 112.4uM after 48 hrs by Western blot analysis (reference value: 1); format: functional
[25] = tested on: DBTRG-05MG; experiment: Induction of cell cycle arrest in human DBTRG-05MG cells assessed as accumulation at S phase at 112.4 uM after 12 hrs by propidium iodide staining based flow cytometric analysis (reference value: 22.76 +/- 1.56%); format: functional
[26] = tested on: RG2; experiment: Synergistic cytotoxicity against rat RG2 cells assessed as combination index at 134.9 uM after 48 hrs in presence of 412.1 uM TMZ by MTT assay; format: functional
[27] = tested on: DBTRG-05MG; experiment: Induction of cell cycle arrest in human DBTRG-05MG cells assessed as CDK2 expression at 112.4uM after 48 hrs in presence of TMZ by Western blot analysis (reference value: 1); format: functional
[28] = tested on: RG2; experiment: Induction of apoptosis in rat RG2 cells assessed as cleaved caspace-9 expression at 112.4 uM after 48 hrs by Western blot analysis (reference value: 1); format: functional
[29] = tested on: DBTRG-05MG; experiment: Synergistic cytotoxicity against human DBTRG-05MG cells assessed as combination index at 112.4 uM after 48 hrs in presence of 206 uM TMZ by MTT assay; format: functional
[30] = tested on: RG2; experiment: Synergistic cytotoxicity against rat RG2 cells assessed as synergistic effect index at 134.9 uM after 48 hrs in presence of 412.1 uM TMZ by MTT assay; format: functional
[31] = tested on: DBTRG-05MG; experiment: Induction of apoptosis in human DBTRG-05MG cells assessed as cleaved caspace-9 expression at 112.4 uM after 48 hrs by Western blot analysis (reference value: 1); format: functional
[32] = Effect on p38 expression in human DBTRG-05MG cells at 112.4uM after 48 hrs in presence of TMZ by Western blot analysis (reference value: 1); format: functional
[33] = tested on: DBTRG-05MG; experiment: Induction of cell cycle arrest in human DBTRG-05MG cells assessed as accumulation at S phase at 112.4 uM after 12 hrs in presence of TMZ by propidium iodide staining based flow cytometric analysis (reference value: 22.76 +/- 1.56%); format: functional
[34] = tested on: RG2; experiment: Induction of cell cycle arrest in rat RG2 cells assessed as accumulation at G0/G1 phase at 112.4 uM after 12 hrs by propidium iodide staining based flow cytometric analysis (reference value: 57.81 +/- 1.9%); format: functional

**Q.** With `Cn1nnc2c(C(N)=O)ncn2c1=O` [TEMOZOLOMIDE] as the molecule, how does the Activity [1] read?
**A.** 24.46%

**Q.** What about the “fold change (FC)” value [2] of the same molecule?
**A.** 0.8

**Q.** What about the “fold change (FC)” value [3] of the same molecule?
**A.** 0.9

**Q.** And the Activity [4]?
**A.** Active

**Q.** And the Activity [5]?
**A.** Active

**Q.** And the Activity [6]?
**A.** 22.95%

**Q.** And the “fold change (FC)” value [7]?
**A.** 0.8

**Q.** Which Activity [8] does the source give for `C[C@@H]1CC[C@H]2C(C)(C)[C@H]3C[C@@]12CC[C@@]3(C)O` [CEDROL] here?
**A.** Active

**Q.** And the “fold change (FC)” value [9]?
**A.** 2.2

**Q.** And the “fold change (FC)” value [10]?
**A.** 0.4

**Q.** What about the “fold change (FC)” value [11] of the same molecule?
**A.** 1.6

**Q.** What about the Activity_index [12] of the same molecule?
**A.** 0.85

**Q.** And the Activity_index [13]?
**A.** 0.85

**Q.** And the Activity [14]?
**A.** 18.04%

**Q.** What about the Activity_index [15] of the same molecule?
**A.** 0.76

**Q.** And the Activity [16]?
**A.** Active

**Q.** What about the Activity [17] of the same molecule?
**A.** Active

**Q.** And the Activity [18]?
**A.** 36.89%

**Q.** And the Activity_index [19]?
**A.** 0.7

**Q.** What about the Activity [20] of the same molecule?
**A.** 17.99%

**Q.** And the Activity_index [21]?
**A.** 0.84

**Q.** What about the fold change (FC) [22] of the same molecule?
**A.** 0.9

**Q.** What about the Activity_index [23] of the same molecule?
**A.** 0.89

**Q.** And the “fold change (FC)” value [24]?
**A.** 0.6

**Q.** And the Activity [25]?
**A.** 14.32%

**Q.** What about the CI [26] of the same molecule?
**A.** 0.93

**Q.** And the “fold change (FC)” value [27]?
**A.** 0.7

**Q.** And the “fold change (FC)” value [28]?
**A.** 1.3

**Q.** And the CI [29]?
**A.** 0.5

**Q.** What about the Activity_index [30] of the same molecule?
**A.** 0.9

**Q.** And the “fold change (FC)” value [31]?
**A.** 1.1

**Q.** And the “fold change (FC)” value [32]?
**A.** 0.8

**Q.** What about the Activity [33] of the same molecule?
**A.** 16.75%

**Q.** What about the Activity [34] of the same molecule?
**A.** 64.98%
